Measurements from ChEMBL document CHEMBL1641467, “Quinazolinones as γ-secretase modulators” (Bioorg Med Chem Lett, 2011).
Values after ≈ are worked out from the molar mass of the structure shown.

Assays:
[1] = target: Voltage-gated inwardly rectifying potassium channel KCNH2 (Homo sapiens, UniProt Q12809)
Description: Displacement of radiolabeled MK-499 from human ERG expressed in HEK293 cells

[2] = target: Gamma-secretase; assay: Inhibition of gamma-secretase in human SH-SY5Y cells overexpressing APP assessed as amyloid beta-42 production by electrochemiluminescent assay
[3] = target: Gamma-secretase; assay: Inhibition of gamma-secretase in human SH-SY5Y cells overexpressing APP assessed as amyloid beta-40 production by electrochemiluminescent assay
[4] = Plasma clearance in Sprague-Dawley rat at 1 mg/kg, iv; assay type: ADME, organism-based; parameters: dose 1 mg/kg, route intravenous
[5] = Half life in Sprague-Dawley rat at 1 mg/kg, iv; assay type: ADME, organism-based; parameters: dose 1 mg/kg, route intravenous; conditions: in vivo
[6] = Oral bioavailability in Sprague-Dawley rat at 2 mg/kg; assay type: ADME, organism-based; conditions: in vivo
[7] = system: Rattus norvegicus; assay: Dose normalized AUC in Sprague-Dawley rat at 2 mg/kg, po; assay type: ADME, organism-based; parameters: dose 2 mg/kg, route oral; conditions: in vivo
[8] = Volume of distribution at steady state in Sprague-Dawley rat at 1 mg/kg, iv; assay type: ADME, organism-based; parameters: dose 1 mg/kg, route intravenous; conditions: in vivo
[9] = system: Rattus norvegicus; assay: Volume of distribution at steady state in Sprague-Dawley rat at 2 mg/kg, po; assay type: ADME, organism-based; parameters: dose 2 mg/kg, route oral; conditions: in vivo
[10] = Plasma clearance in Sprague-Dawley rat at 2 mg/kg, po; assay type: ADME, organism-based; parameters: dose 2 mg/kg, route oral
[11] = Solubility of the compound in PBS buffer; assay type: physicochemical

Chain of Voltage-gated inwardly rectifying potassium channel KCNH2 (Q12809 whole entry): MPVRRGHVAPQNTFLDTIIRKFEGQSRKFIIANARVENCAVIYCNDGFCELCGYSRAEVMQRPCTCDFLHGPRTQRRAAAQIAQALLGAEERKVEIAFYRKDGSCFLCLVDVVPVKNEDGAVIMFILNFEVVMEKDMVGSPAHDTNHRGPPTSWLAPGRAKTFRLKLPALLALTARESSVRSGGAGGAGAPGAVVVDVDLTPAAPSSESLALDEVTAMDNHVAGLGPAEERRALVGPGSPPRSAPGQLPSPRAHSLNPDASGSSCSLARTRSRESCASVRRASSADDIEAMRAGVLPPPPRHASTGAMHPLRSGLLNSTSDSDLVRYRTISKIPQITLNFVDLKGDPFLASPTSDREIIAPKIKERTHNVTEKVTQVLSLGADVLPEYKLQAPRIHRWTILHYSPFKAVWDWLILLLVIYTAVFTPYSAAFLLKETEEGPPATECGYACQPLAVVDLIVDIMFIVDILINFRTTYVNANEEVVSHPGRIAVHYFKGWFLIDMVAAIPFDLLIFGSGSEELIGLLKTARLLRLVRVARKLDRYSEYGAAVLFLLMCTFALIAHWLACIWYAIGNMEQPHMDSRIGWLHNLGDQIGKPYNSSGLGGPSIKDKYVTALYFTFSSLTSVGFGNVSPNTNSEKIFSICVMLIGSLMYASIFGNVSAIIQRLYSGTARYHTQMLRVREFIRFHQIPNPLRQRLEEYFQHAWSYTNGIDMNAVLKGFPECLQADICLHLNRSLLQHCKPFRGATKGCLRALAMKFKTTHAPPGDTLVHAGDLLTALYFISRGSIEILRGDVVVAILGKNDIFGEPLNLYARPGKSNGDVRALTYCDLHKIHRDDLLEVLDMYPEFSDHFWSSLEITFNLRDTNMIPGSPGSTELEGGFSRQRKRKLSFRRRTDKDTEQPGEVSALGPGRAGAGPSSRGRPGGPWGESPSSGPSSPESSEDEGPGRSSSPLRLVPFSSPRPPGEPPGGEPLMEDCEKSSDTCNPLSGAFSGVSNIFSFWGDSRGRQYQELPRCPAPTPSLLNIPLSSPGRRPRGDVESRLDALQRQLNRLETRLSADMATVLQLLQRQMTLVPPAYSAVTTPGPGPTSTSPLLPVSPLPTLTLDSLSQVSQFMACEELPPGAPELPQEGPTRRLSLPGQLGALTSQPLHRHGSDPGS

| SMILES | IC50 [2] [µM] | IC50 [3] [µM] | IC50 [1] [µM] | further results |
| --- | --- | --- | --- | --- |
| COc1cc(/C=C/c2nc3sc4c(c3c(=O)[nH]2)CCC4)ccc1-n1cnc(C)c1 | 0.37 | 3.89 | 4.73 |  |
| COc1cc(/C=C/c2nc(N)c3ccccc3n2)ccc1-n1cnc(C)c1 | 1.69 | 6.1 | 0.14 | solubility [11]: 6 µM (≈ 2.14 µg/mL) |
| COc1cc(/C=C/c2nc3ccccc3c(=O)n2-c2ccccc2)ccc1-n1cnc(C)c1 | 2.08 | > 10 | 0.99 |  |
| COc1cc(/C=C/c2nc3ccccc3c(=O)n2C)ccc1-n1cnc(C)c1 | > 10 | > 10 |  | solubility [11]: 33 µM (≈ 12.3 µg/mL) |
| COc1cc(/C=C/c2nc(N)nc(Nc3ccccc3)n2)ccc1-n1cnc(C)c1 | 1.07 | 3.33 |  |  |
| CCOC(=O)c1sc2nc(/C=C/c3ccc(-n4cnc(C)c4)c(OC)c3)nc(N)c2c1C | 0.54 | 3.72 | 0.98 |  |
| COc1cc(/C=C/c2nc(N)c3c(n2)oc2ccccc23)ccc1-n1cnc(C)c1 | 0.32 | 2.96 | 0.51 |  |
| COc1cc(/C=C/c2nc(NCc3ccccc3)c3c4c(sc3n2)CCC4)ccc1-n1cnc(C)c1 | 1.86 | > 10 | 1.12 |  |
| COc1cc(/C=C/c2nc(N)c3c4c(sc3n2)CCCCC4)ccc1-n1cnc(C)c1 | 0.2 | 2.03 |  |  |

More lines, main results first:

| IC50 [2] [µM] | IC50 [3] [µM] | SMILES | IC50 [1] [µM] | further results |
| --- | --- | --- | --- | --- |
| 0.84 | > 10 | COc1cc(/C=C/c2nc3ccccc3[nH]2)ccc1-n1cnc(C)c1 | 0.68 |  |
| 3.89 | 4.95 | COc1cc(/C=C/c2nc3ccccc3c(=O)[nH]2)ccc1-n1cnc(C)c1 |  |  |
| 4.87 | > 10 | COc1cc(/C=C/c2nc3cccc(F)c3c(=O)[nH]2)ccc1-n1cnc(C)c1 |  |  |
| 4.28 | > 10 | COc1cc(/C=C/c2nc3ccc(F)cc3c(=O)[nH]2)ccc1-n1cnc(C)c1 |  |  |
| 0.66 | > 10 | COc1cc(/C=C/c2nc3cc(Cl)ccc3c(=O)[nH]2)ccc1-n1cnc(C)c1 |  | clearance [4]: 6.8 mL/min/kg; half-life [5]: 5.8 h; bioavailability [6]: 59%; AUC [7]: 7 µM·h; Vd [8]: 1.8 L/kg; Vdss [9]: 8 L/kg; CL/F [10]: 8 mL/min/kg |
| 0.34 | 4.82 | COc1cc(/C=C/c2nc3cc(Br)ccc3c(=O)[nH]2)ccc1-n1cnc(C)c1 |  |  |
| 2.18 | 6.74 | COc1cc(/C=C/c2nc3cc(S(C)(=O)=O)ccc3c(=O)[nH]2)ccc1-n1cnc(C)c1 |  |  |
| 0.37 | 3.74 | COc1cc(/C=C/c2nc3cc(C(F)(F)F)ccc3c(=O)[nH]2)ccc1-n1cnc(C)c1 |  |  |
| 1.29 | > 10 | COc1cc(/C=C/c2nc3scc(C)c3c(=O)[nH]2)ccc1-n1cnc(C)c1 | > 10 |  |
| 1.65 | > 10 | COc1cc(/C=C/c2nc3sc(C)c(C)c3c(=O)[nH]2)ccc1-n1cnc(C)c1 | > 10 |  |
